Measurements as given in PubChem BioAssay (NCI).
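Growth conditions: 96-well plates. Treatment: test compound, 48 hours, 5 concentrations. Analysis: linear interpolation between bracketing concentrations; unreached endpoints set to highest concentration. Abbreviation: GI50, concentration required for 50% inhibition of growth. TGI denotes the concentration required for complete inhibition of growth.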

How the values were obtained:
Assay in all cases: DTP human tumour cell line panel, 48 h
MCF7 breast = tested on: MCF7 breast
NCI-H460 lung = tested on: NCI-H460 lung
HCT-15 colon = tested on: HCT-15 colon
M14 melanoma = tested on: M14 melanoma
SW-620 colon = tested on: SW-620 colon
NCI-H226 lung = tested on: NCI-H226 lung
U251 CNS = tested on: U251 CNS
ACHN renal = tested on: ACHN renal
NCI/ADR-RES ovarian = tested on: NCI/ADR-RES ovarian
OVCAR-8 ovarian = tested on: OVCAR-8 ovarian
HL-60(TB) leukemia = tested on: HL-60(TB) leukemia
OVCAR-4 ovarian = tested on: OVCAR-4 ovarian
HS 578T breast = tested on: HS 578T breast
A498 renal = tested on: A498 renal
BT-549 breast = tested on: BT-549 breast
RXF 393 renal = tested on: RXF 393 renal
SF-268 CNS = tested on: SF-268 CNS
MALME-3M melanoma = tested on: MALME-3M melanoma
UACC-257 melanoma = tested on: UACC-257 melanoma
OVCAR-5 ovarian = tested on: OVCAR-5 ovarian
SN12C renal = tested on: SN12C renal
SK-MEL-28 melanoma = tested on: SK-MEL-28 melanoma
LOX IMVI melanoma = tested on: LOX IMVI melanoma
IGROV1 ovarian = tested on: IGROV1 ovarian
MDA-MB-468 breast = tested on: MDA-MB-468 breast
UACC-62 melanoma = tested on: UACC-62 melanoma
MOLT-4 leukemia = tested on: MOLT-4 leukemia
T-47D breast = tested on: T-47D breast
SF-295 CNS = tested on: SF-295 CNS
A549 NSCLC = tested on: A549 NSCLC
NCI-H522 lung = tested on: NCI-H522 lung
SNB-19 CNS = tested on: SNB-19 CNS
EKVX NSCLC = tested on: EKVX NSCLC
TK-10 renal = tested on: TK-10 renal
HT29 colon = tested on: HT29 colon
HCT-116 colon = tested on: HCT-116 colon
NCI-H23 lung = tested on: NCI-H23 lung
HOP-92 NSCLC = tested on: HOP-92 NSCLC
HOP-62 NSCLC = tested on: HOP-62 NSCLC
SK-MEL-5 melanoma = tested on: SK-MEL-5 melanoma
DU-145 prostate = tested on: DU-145 prostate
MDA-MB-435 = tested on: MDA-MB-435
CAKI-1 renal = tested on: CAKI-1 renal
RPMI-8226 leukemia = tested on: RPMI-8226 leukemia
K-562 leukemia = tested on: K-562 leukemia
PC-3 prostate = tested on: PC-3 prostate
COLO 205 colon = tested on: COLO 205 colon
786-0 renal = tested on: 786-0 renal
KM12 colon = tested on: KM12 colon
HCC-2998 colon = tested on: HCC-2998 colon
SR leukemia = tested on: SR leukemia
CCRF-CEM leukemia = tested on: CCRF-CEM leukemia
SK-OV-3 ovarian = tested on: SK-OV-3 ovarian
SF-539 CNS = tested on: SF-539 CNS
OVCAR-3 ovarian = tested on: OVCAR-3 ovarian

## O=C(Cc1c(-c2ccccc2[N+](=O)[O-])n(-c2ncnc3c2c(-c2ccccc2)c(-c2ccccc2)n3Cc2ccccc2)[nH]c1=O)c1ccc(Cl)c(Cl)c1
MCF7 breast
  GI50: 12.7 µM
  TGI: 47.7 µM
NCI-H460 lung
  GI50: 15.3 µM
  TGI: > 100 µM
HCT-15 colon
  GI50: 15.8 µM
  TGI: 57.5 µM
M14 melanoma
  GI50: 17.7 µM
  TGI: 58.1 µM
SW-620 colon
  GI50: 22.5 µM
  TGI: > 100 µM
NCI-H226 lung
  GI50: 14.4 µM
  TGI: 61 µM
U251 CNS
  GI50: 13.7 µM
  TGI: > 100 µM
ACHN renal
  GI50: 15.2 µM
  TGI: > 100 µM
NCI/ADR-RES ovarian
  GI50: 19.7 µM
  TGI: > 100 µM
OVCAR-8 ovarian
  GI50: 20.1 µM
  TGI: > 100 µM
HL-60(TB) leukemia
  GI50: 5.24 µM
  TGI: 58.7 µM
OVCAR-4 ovarian
  GI50: 13.2 µM
  TGI: > 100 µM
HS 578T breast
  GI50: 10.4 µM
  TGI: 74.6 µM
A498 renal
  GI50: 16.6 µM
  TGI: 78 µM
BT-549 breast
  GI50: 12.1 µM
  TGI: 53.8 µM
RXF 393 renal
  GI50: 22.5 µM
  TGI: > 100 µM
SF-268 CNS
  GI50: 29.4 µM
  TGI: > 100 µM
MALME-3M melanoma
  GI50: 12.4 µM
  TGI: 48.9 µM
UACC-257 melanoma
  GI50: 9.08 µM
  TGI: 66.1 µM
OVCAR-5 ovarian
  GI50: 16.4 µM
  TGI: 83.8 µM
SN12C renal
  GI50: 15.1 µM
  TGI: > 100 µM
SK-MEL-28 melanoma
  GI50: 17.9 µM
  TGI: > 100 µM
LOX IMVI melanoma
  GI50: 11.6 µM
  TGI: 26.9 µM
IGROV1 ovarian
  GI50: 12.1 µM
  TGI: > 100 µM
MDA-MB-468 breast
  GI50: 5.29 µM
  TGI: 33.5 µM
UACC-62 melanoma
  GI50: 5.17 µM
  TGI: 20.9 µM
MOLT-4 leukemia
  GI50: 13.4 µM
  TGI: 61.6 µM
T-47D breast
  GI50: 2.76 µM
  TGI: > 100 µM
SF-295 CNS
  GI50: 8.34 µM
  TGI: > 100 µM
A549 NSCLC
  GI50: 19.7 µM
  TGI: > 100 µM
NCI-H522 lung
  GI50: 7.37 µM
  TGI: 72.8 µM
SNB-19 CNS
  GI50: 15.9 µM
  TGI: > 100 µM
EKVX NSCLC
  GI50: 3.84 µM
  TGI: > 100 µM
TK-10 renal
  GI50: 29.3 µM
  TGI: > 100 µM
HT29 colon
  GI50: 10.1 µM
  TGI: > 100 µM
HCT-116 colon
  GI50: 5.9 µM
  TGI: 80.9 µM
NCI-H23 lung
  GI50: 13.3 µM
  TGI: 72.5 µM
HOP-92 NSCLC
  GI50: 2.2 µM
  TGI: 23.7 µM
HOP-62 NSCLC
  GI50: 19.4 µM
  TGI: 85.5 µM
SK-MEL-5 melanoma
  GI50: 8.89 µM
  TGI: 21.6 µM
DU-145 prostate
  GI50: 33.9 µM
  TGI: > 100 µM
MDA-MB-435
  GI50: 19.5 µM
  TGI: 62.2 µM
CAKI-1 renal
  GI50: 15.7 µM
  TGI: 93.9 µM
RPMI-8226 leukemia
  GI50: 3.38 µM
  TGI: 29.7 µM
K-562 leukemia
  GI50: 6.68 µM
  TGI: > 100 µM
PC-3 prostate
  GI50: 5.45 µM
  TGI: > 100 µM
COLO 205 colon
  GI50: 11.5 µM
  TGI: 24.7 µM
786-0 renal
  GI50: 26.8 µM
  TGI: > 100 µM
KM12 colon
  GI50: 15.1 µM
  TGI: > 100 µM
HCC-2998 colon
  GI50: 18.8 µM
  TGI: > 100 µM
SR leukemia
  GI50: 12.4 µM
  TGI: 45.3 µM
CCRF-CEM leukemia
  GI50: 18.6 µM
  TGI: > 100 µM
SK-OV-3 ovarian
  GI50: 14.2 µM
  TGI: 55.4 µM
SF-539 CNS
  GI50: 21 µM
  TGI: 83.9 µM
OVCAR-3 ovarian
  GI50: 12.8 µM
  TGI: > 100 µM
